The subject of experiment [1] is NF-κB. Description: NF-κB-dependent luciferase assay in PC-3 cells, TNF-α stimulation. Conditions: TNF-α 50 ng/ml, up to 24 h. The format is cell-based, human. The protocol:
(§1) The NF-κB-luciferase reporter plasmid (pBIIX) and pRL-TK control vector described in Example 1 were used for the luciferase assay,
The PC-3 cells were seeded at a density of 3×10^4 cells/cm^2 in 6 well-plates. The following day, the cells were co-transfected with construct DNA and pRL-TK vector using DOTAP liposomal transfection reagent (Boehringer Mannheim). The construct DNA (4.0 μg per well), the pRL-TK vector (1.0 μg per well), DOTAP (16.7 μl per well) and dH2O (total volume 100 μl per well) were carefully mixed and incubated for 15 min at 37° C. A growth medium without serum (900 μl per well) was added and the transfection mixture (1 ml per well) was added to the cells. After 4 h at 37° C., a growth medium with 20% FBS (1 ml per well) was added. The cells were treated at 37° C. with compound A (10^−12−10^−5 M) or DMSO for 24 h before stimulation with TNF-α (50 ng/ml) for 6 h.
(§2) The cell lysate was assayed for luciferase activity using the Dual luciferase kit as described by the manufacturer (Promega). All transfections were performed in triplicate. Firefly luciferase activity was corrected for differences in transfection efficiency by normalizing it to the measured Renilla luciferase activity.
(§3) NF-κB activity was measured by the luciferase assay described in Example 1.

Experiment [2] concerns NF-κB. Description: NF-κB-dependent luciferase assay in Colo-320 cells, TNF-α stimulation. In kind it is cell-based, human. Conditions: TNF-α 50 ng/ml, up to 24 h. The protocol: as §1
The Colo-320 cells were seeded with a density of 5×10^4 cells/cm^2 in 6-well plates (NUNC). The following day, the cells were co-transfected with construct DNA and pRL-TK using FuGene Transfection Reagent (Boehringer Mannheim). A mixture of 5 μl Fugene and 95 μl serum free medium (per well) was prepared and incubated for 5 min at room temperature. Then, the mixture was transferred to a mixture of construct DNA (2.5 μg per well) and pRL-TK vector (0.25 μg per well), gently mixed, incubated for 15 min at room temperature and added to the cells. The cells were treated at 37° C. with compound A (10^−12−10^−5 M) or DMSO for 24 h before stimulation with TNF-α (50 ng/ml) for 6 h.
as §2, §3

In experiment [3] the test system is NF-κB. Briefly: NF-κB-dependent luciferase assay in HT-1080 cells, TNF-α stimulation. Conditions: TNF-α 50 ng/ml, up to 24 h. In kind it is cell-based, human. The protocol:
as §1
The HT-1080 cells were seeded at a density of 3×10^4 cells/cm^2 in 6 well-plates. The following day, the cells were co-transfected with construct DNA and pRL-TK vector using FuGene Transfection Reagent. A mixture of 10 μl Fugene and 90 μl serum free medium (per well) was prepared and Incubated for 5 min at room temperature. Then, this mixture was transferred to a mixture of construct DNA (1.25 μg per well) and pRL-TK vector (0.25 μg per well), gently mixed, incubated for 15 min at room temperature and added to the cells. The cells were treated at 37° C. with compound A (10^−12−10^−5 M) or DMSO for 24 h before stimulation with TNF-α (50 ng/ml) for 6 h.
as §2, §3

For another experiment, the system named is NYH Xenografts. Briefly: NYH xenografts in nude mice, tumour growth. Conditions: nude mice with NYH SCLC tumours, 14 days of treatment with 20 mg/kg. In kind it is in vivo, NMRI nu/nu mice. The method, then:
All of the animal experiments were conducted according to the guidelines and ethical standards of the Danish Committee for Animal Experiments. Female NMRI nu/nu mice 6 weeks of age were purchased from M&B (Ry, Denmark). The mice were allowed an acclimatisation period of 1-3 weeks before start of the experiments. The nude mice were housed in Scantainers under semi-sterile conditions and all handling of mice was performed in a laminar flow bench.
NYH Xenografts. NMRI nu/nu mice were injected with 1×10^7 cells in 0.2 ml media s.c. in both flanks and tumour growth was measured twice weekly. The tumour area was used as expression of the tumour size and was calculated from two perpendicular diameters measured with a digital caliper. Compound A was given for fourteen consecutive days by oral gavage from day 4-6 when the tumour size was 24-30 mm^2. Each treatment group consisted of 10 mice.
Statistical Methods In the animal models, tumour sizes were expressed by the mean of the trends in each treatment group. The trend is the linear increment or tumour size, where tumour size is the square root of the (mean) area of the tumour(s). Comparison with controls was expressed as T/C % and calculated as follows:
A=(overall mean tumour size at baseline+mean trend of treatment*intended days of treatment)
B=(overall mean tumour size at baseline+mean trend of control*intended days of treatment)
Overall mean tumour size at baseline=pooling all treatments this is the mean of all baseline values. For each mouse the baseline value is calculated as the square root of the (mean) area of the tumour(s).
Significance was tested with the Bonferroni correction. This correction is a method for adjusting (lowering) the significance level so the overall finding of one significant difference due to chance is around 5 percent.

The subject of a further experiment is NYH SCLC cells. Description: DNA synthesis (tritiated thymidine incorporation) in NYH SCLC cells. The conditions noted are these: incorporation of tritiated thymidine in NYH SCLC cells; read-out: NYH proliferation in vitro (IC50 nM). The format is cell-based. The protocol: DNA synthesis: NYH SCLC, HT-1080, Colo-320, PC-3 and H460 cells (7.5×10^3 cells/ml) were seeded in tissue culture vessels and the test compound were added 2 h after plating. Following an incubation for 144 h tritiated thymidine (5 CI/mmol, Amersham Pharmacia Biotech) was added to the culture at the concentration of 1 μCi/ml, and the cells were incubated for additional 4 h. The incorporated thymidine was measured with a β-counter. Each compound concentration was tested in triplicate.

In a further experiment the target is T1, IKK (Homo sapiens, UniProt O14920).
T1 construct: IKK was immunoprecipitated with an IKKα/β antibody; endogenous in cells; host or cells: THP-1 cells stimulated with 1 μg/ml LPS; whole cell extract immunoprecipitated with an IKKα/β antibody (Santa Cruz)
Briefly: In vitro kinase assay: IKK immunoprecipitated from LPS-stimulated THP-1 cells, GST-IκBα phosphorylation. In kind it is biochemical. The conditions noted are these: GST-IκB phosphorylated by activated IKK pretreated with the compound. The protocol:
In vitro kinase assay: THP-1 cells (1×10^7 cells) were stimulated with 1 μg/ml LPS for the indicated time periods and whole cell extracts were prepared as described above. IKK was immunoprecipitated with an IKKα/β antibody (raised against amino acid 470-755 of IKKβ of human origin but partially cross-reactive with IKKα as detected by Western Blotting (Santa Cruz Biotechnology Inc.). Compound A was diluted in kinase buffer (25 mM HEPES pH 7.5, 10 mM magnesium acetate, 50 μM ATP) at the appropriate concentrations. The compound was added to the beads for 30 min. at 30° C. The kinase reaction was started by adding 2.5 μg of the GST-IκBα substrate (Santa Cruz Biotechnology Inc.) together with 2 μCi γ-^32P-ATP (Amersham Pharmacia Biotech) per sample. The reaction was allowed to proceed for 30 min. at 30° C., and the IKK activity was measured by the amount of radioactive-labelled GST-IκBα bands, quantified by the STORM860 Phospho-Imager.
A general problem with the kinase assay is prestimulation of the kinase. To achieve a value for the zero-point, the LPS-activated IKK mixture was incubated with 20 μM myricetin (Sigma-Aldrich), which is a known IKKβ inhibitor (S. H. Tsal et al., J. Cell Biochem. 74, 1999, pp. 606-615). This value was subtracted from the all other values. All data are expressed as percentage of the activity of the LPS-activated IKKβ kinase treated with 0.1% DMSO.

Read-outs that look alike come from different tables or passages of the source.

T1 sequence (O14920 whole entry): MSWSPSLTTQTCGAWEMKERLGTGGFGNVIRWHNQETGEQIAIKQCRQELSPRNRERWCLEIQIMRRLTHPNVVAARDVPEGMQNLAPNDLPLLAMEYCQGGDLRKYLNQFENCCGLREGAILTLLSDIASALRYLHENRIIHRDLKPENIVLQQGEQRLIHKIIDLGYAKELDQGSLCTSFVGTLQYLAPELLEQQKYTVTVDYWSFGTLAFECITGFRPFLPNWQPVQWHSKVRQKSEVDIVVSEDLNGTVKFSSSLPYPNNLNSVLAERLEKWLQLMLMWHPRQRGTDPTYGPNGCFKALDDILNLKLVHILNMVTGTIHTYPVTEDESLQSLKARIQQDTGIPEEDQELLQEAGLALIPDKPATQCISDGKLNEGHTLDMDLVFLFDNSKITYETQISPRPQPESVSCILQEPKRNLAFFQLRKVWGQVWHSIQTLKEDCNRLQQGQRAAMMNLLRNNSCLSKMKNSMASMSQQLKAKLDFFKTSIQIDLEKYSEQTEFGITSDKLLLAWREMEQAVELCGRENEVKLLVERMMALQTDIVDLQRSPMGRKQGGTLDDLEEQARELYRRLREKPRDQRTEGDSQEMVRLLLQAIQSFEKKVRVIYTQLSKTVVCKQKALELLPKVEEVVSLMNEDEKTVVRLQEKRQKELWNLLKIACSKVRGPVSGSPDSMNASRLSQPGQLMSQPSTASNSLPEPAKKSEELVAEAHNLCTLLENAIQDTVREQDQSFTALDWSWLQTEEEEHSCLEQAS
T1 sequence (O15111 whole entry partner): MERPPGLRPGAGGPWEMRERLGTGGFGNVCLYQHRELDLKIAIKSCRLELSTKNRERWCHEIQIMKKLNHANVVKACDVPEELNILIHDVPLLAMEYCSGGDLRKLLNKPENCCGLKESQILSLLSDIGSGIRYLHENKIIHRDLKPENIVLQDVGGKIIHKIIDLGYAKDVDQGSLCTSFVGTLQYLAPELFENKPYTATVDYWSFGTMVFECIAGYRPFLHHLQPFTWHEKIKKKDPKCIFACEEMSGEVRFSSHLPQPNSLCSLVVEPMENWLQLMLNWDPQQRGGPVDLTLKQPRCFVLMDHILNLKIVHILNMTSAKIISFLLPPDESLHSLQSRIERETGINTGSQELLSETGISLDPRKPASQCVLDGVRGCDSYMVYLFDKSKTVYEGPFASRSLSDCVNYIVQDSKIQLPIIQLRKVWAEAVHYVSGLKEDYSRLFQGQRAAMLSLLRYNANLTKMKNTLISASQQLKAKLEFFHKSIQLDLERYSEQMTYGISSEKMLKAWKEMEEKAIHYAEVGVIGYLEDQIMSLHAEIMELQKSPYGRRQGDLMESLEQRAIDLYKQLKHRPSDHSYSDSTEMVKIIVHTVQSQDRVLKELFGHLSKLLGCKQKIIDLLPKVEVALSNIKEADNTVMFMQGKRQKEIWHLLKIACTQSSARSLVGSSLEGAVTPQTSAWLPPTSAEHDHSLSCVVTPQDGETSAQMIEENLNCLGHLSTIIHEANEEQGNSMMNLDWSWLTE
T1 sequence (Q9Y6K9 whole entry partner): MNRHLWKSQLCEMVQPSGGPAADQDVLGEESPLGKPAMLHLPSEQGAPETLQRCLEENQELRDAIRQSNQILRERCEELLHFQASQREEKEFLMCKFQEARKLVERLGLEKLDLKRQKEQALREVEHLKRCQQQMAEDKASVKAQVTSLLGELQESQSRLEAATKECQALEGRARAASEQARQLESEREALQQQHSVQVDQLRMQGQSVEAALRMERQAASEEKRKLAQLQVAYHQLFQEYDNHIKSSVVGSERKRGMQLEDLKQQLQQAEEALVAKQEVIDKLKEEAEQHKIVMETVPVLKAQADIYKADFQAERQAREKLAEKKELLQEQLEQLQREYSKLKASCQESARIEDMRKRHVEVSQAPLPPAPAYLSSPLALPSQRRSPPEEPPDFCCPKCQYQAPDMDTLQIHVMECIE

Turning to TNF-α, the “effect on the NF-κB activity” value with NF-κB [1] is given as “only a small effect”. Also, the “NF-κB activity increase compared to the control” value with NF-κB [2] was about 46 fold; in the experiment on NF-κB [3], “approximately 12 fold”.
On to `CCOC(=O)c1cccc(NC(=NC#N)NCCCCCCOc2ccc(Cl)cc2)c1` [compound E], for which, in the experiment with NYH Xenografts, the “NYH tumor growth in vivo (T/C in %)” value was −17.1%. Also, the IC50 in the experiment with NYH SCLC cells is 597 ± 42 nM; at IKK (cell prints (M), head nM, read-out: IKK activity in vitro (IC50)), over 1e-05 M.
Consider `COc1ccc(NC(=NC#N)NCCCCCCOc2ccc(Cl)cc2)cn1` [compound C], for which the figures for the IC50 in the experiment with NYH SCLC cells and at IKK (read-out: IKK activity in vitro (IC50 nM)) were 567 ± 127 nM and 2.2e-08 ± 2.4e-09 M, respectively.

(Values after patent US6642215B2 (Leo Pharma A/S, priority 2001, dated 2003).)
